Test results: paper PMC11284790, “Targeting Myeloperoxidase Ameliorates Gouty Arthritis: A Virtual Screening Success Story” (Journal of Medicinal Chemistry, 2024)

How the values were obtained:
Human leukocyte MPO = Human leukocyte MPO (Homo sapiens, UniProt P05164); assay: Reversibility test (residual peroxidase activity after 200-fold dilution); assay type: biochemical; design: Human leukocyte MPO (EC 1.7.1.11) was purchased from Planta Natural Products; purchased Planta Natural Products (Vienna, Austria); host or cells: human leukocytes; conditions: 100 nM MPO, 20 μM inhibitor, 30 min, then 200-fold dilution
Human leukocyte MPO, sequence (P05164 279-745 limits assumed): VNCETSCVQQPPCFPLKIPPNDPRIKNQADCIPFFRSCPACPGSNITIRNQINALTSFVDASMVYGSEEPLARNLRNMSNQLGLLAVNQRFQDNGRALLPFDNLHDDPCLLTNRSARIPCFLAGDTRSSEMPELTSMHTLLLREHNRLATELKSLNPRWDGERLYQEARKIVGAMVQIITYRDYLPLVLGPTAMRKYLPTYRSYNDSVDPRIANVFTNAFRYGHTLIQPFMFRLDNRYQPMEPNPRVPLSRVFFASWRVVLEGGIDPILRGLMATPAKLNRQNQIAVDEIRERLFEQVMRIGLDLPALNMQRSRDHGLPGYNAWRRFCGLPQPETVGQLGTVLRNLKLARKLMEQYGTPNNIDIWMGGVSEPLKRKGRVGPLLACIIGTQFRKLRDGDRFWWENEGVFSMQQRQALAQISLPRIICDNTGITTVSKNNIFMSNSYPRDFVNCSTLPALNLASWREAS
Human leukocyte MPO, sequence (P05164 165-278 limits assumed): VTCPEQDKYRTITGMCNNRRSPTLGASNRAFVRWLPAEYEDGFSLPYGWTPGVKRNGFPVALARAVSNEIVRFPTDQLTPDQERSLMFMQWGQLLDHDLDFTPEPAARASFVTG
Description: Reversibility of the inhibition was analyzed by peroxidase residual activity.[77] […] After incubation, the system was diluted 200-fold using acetate buffer ([…], pH 5.4) in the presence of TMB (2 mM dissolved in 10% dimethylformamide). After a new hydrogen peroxide addition (2 μM), the oxidation of TMB was quantified at 655 nm.

[1] = test system: PARP1 in RPE1-hTERT cells; assay: PARP1 off-target assay: H2O2-induced ADP-ribosylation; assay type: cell-based; conditions: RL6 1, 10 and 50 μM; olaparib 10 μM; 600 μM H2O2 for 10 min
Description: After 1 h of pretreatment, the cells were treated with 600 μM H2O2 (Sigma) in PBS for 10 min at 37 °C. Cells were lysed in preheated Laemmli buffer devoid of beta-mercaptoethanol and bromophenol blue, and the lysates were boiled for 15 min. Protein concentration was determined using a BCA protein quantification kit (Pierce) and normalized. Beta-mercaptoethanol and bromophenol blue were then added, and the lysates were boiled again for 15 min. Proteins were separated in a 10% SDS-PAGE gel and then transferred to nitrocellulose membranes (Bio-Rad). […] Membranes were incubated with ECL Prime (Amersham), and the signals were detected using a Chemidoc MP Imaging System (Bio-Rad). […] Signals were quantified using ImageJ software.
(C) ADP-ribosylation in RPE1-hTERT cells was
triggered by H2O2 (600 µM) for 10 min. (D) Gel densitometry quantified by ImageJ
software, n=3. A concentration of 0.1% DMSO was used.

human neutrophils = assay: MSU-induced NETosis assay (sytox green fluorescence microscopy); assay type: cell-based; conditions: 20 μM compound, MSU 250 μg/mL, 90 min
Description: NETosis assay was conducted on human neutrophils adhered to lysine-coated glass coverslips as previously reported.[80] After neutrophils’ adhesion, the compounds were diluted in RPMI medium (free of phenol red and fetal bovine serum) at a final concentration of 20 μM (0.15% DMSO) and added to the cells for 15 min at 37 °C in a 5% CO2 atmosphere. Then, MSU crystals (250 μg/mL), known to induce NETosis, were added. After 90 min incubation, the medium was carefully removed, paraformaldehyde was added (500 μL at 4%), and incubated at 4 °C overnight. In the following day, paraformaldehyde was removed, and cells were washed threefold with tris-HCl buffer (20 mM, pH 7.4) and kept into the same buffer at 4 °C. Tris-HCl buffer was carefully removed, and DNA was stained by adding 500 μL SYTOX Green (500 nM diluted in tris-HCl buffer). The system was kept for 30 min at room temperature, protected from light. After staining, the coverslips were mounted over the glass slides using ProLong Diamond Antifade Mountant fixation medium. Fluorescence images were acquired in an Axiovert 200 (Zeiss) fluorescence microscope with a 20x/0.4 objective and Zeiss Filter Set 09, λex = 450–490 nm, λem = above 515 nm. Images were taken by an Axiocam HR R3 camera device.

hTERT-RPE1 cells = assay: Cell viability assay (XTT); assay type: cell-based; conditions: 2-50 μM, 72 h
Description: hTERT-RPE1 cells were seeded in 24-well plates at 2 × 10^4 cells per well. After 24 h, cells were treated with 2, 5, 10, 25, or 50 μM RL6, RL7, or PTU in a culture medium (DMEM/F-12 with HEPES and 10% FBS). DMSO was added to untreated cells at 0.42% concentration as a vehicle control. After 72 h of treatment, cells were washed with PBS and left in 200 μL of XTT working solution for 3 h. The working solution was prepared according to manufacturer’s instructions but diluted eightfold in PBS. The supernatant was transferred to a 96-well plate; absorbance was read at 450 and 750 nm in a Synergy (Biotek, Winooski, VE, USA) plate reader and presented as percentage of control.
Figure S5. Evaluation of cytotoxicity by XTT. hTERT-RPE1 cells were seeded in 24-
well plates at 2 × 10^4 cells per well. 24h later, cells were treated with RL6, RL7 or PTU
(2, 5, 10, 25, 50 µM) in culture medium (DMEM/F-12 with HEPES and 10% FBS).
Viable cells were assessed 72h after treatments by measuring absorbance of the
supernatant at 450 and 750 nm and are presented as percentage of control (0.42%
DMSO). Data are mean ± SEM of three independent experiments.

[2] = Stopped-flow reaction of compound with HOCl (fluorescence decay); conditions: 20 μM compound, 250 μM HOCl, up to 1 s
Description: The fast oxidation of RL7 was monitored in a stopped-flow spectrophotometer (Applied Photophysics SX20) using the intrinsic RL7 fluorescence (λex = 306 nm and λem = above 340 nm). The reaction of RL7 (20 μM in 0.3% DMSO) with HOCl (250 μM) was performed in phosphate buffer (20 mM, pH 7.4), diethylenetriaminepentaacetic acid (100 μM), and NaCl (140 mM). Data were obtained within 1 s.

| SMILES | reversibility of MPO inhibition (residual peroxidase activity) (Human leukocyte MPO) | inhibition of H2O2-induced ADP-ribosylation [1] | inhibition of MSU-induced NETosis (human neutrophils) | cytotoxicity to hTERT-RPE1 cells (hTERT-RPE1 cells) | reaction with HOCl (fluorescence decay) [2] |
| --- | --- | --- | --- | --- | --- |
| Nc1cc2c3c(cccc3c1)C(=O)N(N)C2=O [RL6] | reversible inhibition | failed to inhibit | strongly inhibited | no cytotoxicity |  |
| CN1CCc2nc3sc(C(=O)Nc4cccc(C#N)c4)c(N)c3cc2C1 [RL7] |  |  | to a lesser extent | highly cytotoxic at 50 μM | rapidly reacts with HOCl |
